Reference: paper PMC10702058, “Phase I dose escalation study and pilot efficacy analysis of LXI-15029, a novel mTOR dual inhibitor, in Chinese subjects with advanced malignant solid tumors” (BMC Cancer, 2023)
Entries after “also recorded” stand apart in the source; their conditions may differ.

Experiments:
[1] = Plasma pharmacokinetics of LXI-15029 (LC-MS/MS, non-compartmental analysis); type: in vivo, human; conditions: for AUC / Cmax at 28 day / AUC(0-inf) / Cmax: human, plasma, geometric mean (coefficient of variation); for AUC / Cmax at 28 day / RacAUC (accumulation ratio) / RacCmax (accumulation ratio) / t1/2ss: multiple dose, cycle 1 day 28; for AUC(0-inf) / Cmax / CL/F / V/F: single dose, cycle 1 day 1; for RacAUC (accumulation ratio) / RacCmax (accumulation ratio) / t1/2ss / CL/F / V/F: arithmetic mean ± standard deviation
Protocol: Blood samples for PK analysis of LXI-15029 were collected on day 1 (pre-dose, 20 min, 40 min, 1 h, 1.5 h, 2 h, 3 h, 4 h, 6 h, 8 h, 12 h, 24 h, and 48 h), cycle 1 day 8 (pre-dose), cycle 1 day 15 (pre-dose), and cycle 1 day 28 (pre-dose, 20 min, 40 min, 1 h, 1.5 h, 2 h, 3 h, 4 h, 6 h, 8 h, and 12 h). The blood samples were stored at -70°C until testing. The concentration of LXI-15029 in plasma was measured using the validated liquid chromatography-tandem mass spectrometry (LC–MS/MS) method. The concentration–time information of LXI-15029 was summarized based on pre-dose and post-dose data of each patient, to explore the linearity of exposure with single dose and steady-state situations, the time to reach steady state and the predictability of single to multiple doses PK. PK parameters were calculated separately for single and repeated doses using descriptive statistics. PK analysis was performed by Covance Central Laboratory using the validated software Phoenix WinNonlin Version 8.1 (Pharsight, Mountain View, CA). A standard non-compartmental method was used to calculate the peak plasma concentration (Cmax), time to reach the Cmax (tmax), the total area under the concentration–time curve (AUC0-∞), and the elimination half-life (t1/2).

[2] = tested on: human renal carcinoma, gastric cancer, breast cancer, and lung cancer xenografts; conditions: cited from earlier work

SMILES: CNC(=O)c1cccc(-c2ccc3c(N4C5CCC4COC5)nc(N4CCOC[C@@H]4C)nc3n2)c1 [LXI-15029]
- AUC ([1]; oral, 60 mg BID (n = 4)): 5.73 µg·h/mL
- Cmax at 28 day ([1]; oral, 60 mg BID (n = 4)): 1.69 µg/mL
- AUC ([1]; oral, 80 mg BID (n = 4)): 5.22 µg·h/mL
- Cmax at 28 day ([1]; oral, 80 mg BID (n = 4)): 2.26 µg/mL
- AUC ([1]; oral, 110 mg BID (n = 3)): 12.9 µg·h/mL
- Cmax at 28 day ([1]; oral, 110 mg BID (n = 3)): 3.93 µg/mL
- AUC ([1]; oral, 150 mg BID (n = 4)): 25.5 µg·h/mL
- Cmax at 28 day ([1]; oral, 150 mg BID (n = 4)): 5.84 µg/mL
- AUC(0-inf) ([1]; oral, 10 mg BID (n = 3)): 0.111 µg·h/mL
- Cmax ([1]; oral, 10 mg BID (n = 3)): 0.0665 µg/mL
- AUC(0-inf) ([1]; oral, 20 mg BID (n = 3)): 0.898 µg·h/mL
- Cmax ([1]; oral, 20 mg BID (n = 3)): 0.474 µg/mL
- AUC(0-inf) ([1]; oral, 40 mg BID (n = 3)): 1.68 µg·h/mL
- Cmax ([1]; oral, 40 mg BID (n = 3)): 1.01 µg/mL
- AUC(0-inf) ([1]; oral, 60 mg BID (n = 4)): 3.75 µg·h/mL
- Cmax ([1]; oral, 60 mg BID (n = 4)): 1.34 µg/mL
- AUC(0-inf) ([1]; oral, 80 mg BID (n = 4)): 1.87 µg·h/mL
- Cmax ([1]; oral, 80 mg BID (n = 4)): 1.34 µg/mL
- AUC(0-inf) ([1]; oral, 110 mg BID (n = 3)): 5.34 µg·h/mL
- Cmax ([1]; oral, 110 mg BID (n = 3)): 2.93 µg/mL
- AUC(0-inf) ([1]; oral, 150 mg BID (n = 4)): 12.1 µg·h/mL
- Cmax ([1]; oral, 150 mg BID (n = 4)): 4.14 µg/mL
- RacAUC (accumulation ratio) ([1]; 10 mg BID (n = 3)): 2.08 ± 1.289
- RacCmax (accumulation ratio) ([1]; 10 mg BID (n = 3)): 1.96 ± 1.061
- t1/2ss ([1]; 10 mg BID (n = 3)): 1.13 ± 0.080 h
- RacAUC (accumulation ratio) ([1]; 20 mg BID (n = 3)): 0.99 ± 0.260
- RacCmax (accumulation ratio) ([1]; 20 mg BID (n = 3)): 0.75 ± 0.140
- t1/2ss ([1]; 20 mg BID (n = 3)): 1.24 ± 0.167 h
- RacAUC (accumulation ratio) ([1]; 40 mg BID (n = 3)): 1.00 ± 0.036
- RacCmax (accumulation ratio) ([1]; 40 mg BID (n = 3)): 1.02 ± 0.180
- t1/2ss ([1]; 40 mg BID (n = 3)): 1.14 ± 0.250 h
- RacAUC (accumulation ratio) ([1]; 60 mg BID (n = 4)): 1.47 ± 0.546
- RacCmax (accumulation ratio) ([1]; 60 mg BID (n = 4)): 1.37 ± 0.382
- t1/2ss ([1]; 60 mg BID (n = 4)): 1.90 ± 0.197 h
- RacAUC (accumulation ratio) ([1]; 80 mg BID (n = 4)): 1.78 ± 0.268
- RacCmax (accumulation ratio) ([1]; 80 mg BID (n = 4)): 1.28 ± 0.102
- t1/2ss ([1]; 80 mg BID (n = 4)): 1.33 ± 0.068 h
- RacAUC (accumulation ratio) ([1]; 110 mg BID (n = 3)): 2.51 ± 0.778
- RacCmax (accumulation ratio) ([1]; 110 mg BID (n = 3)): 1.37 ± 0.352
- t1/2ss ([1]; 110 mg BID (n = 3)): 2.33 ± 0.857 h
- RacAUC (accumulation ratio) ([1]; 150 mg BID (n = 4)): 2.39 ± 0.768
- RacCmax (accumulation ratio) ([1]; 150 mg BID (n = 4)): 1.36 ± 0.507
- t1/2ss ([1]; 150 mg BID (n = 4)): 3.26 ± 1.247 h
- absorption after oral administration ([1]; oral): absorbed rapidly; also recorded: fast absorbed
- CL/F ([1]; 10 mg BID (n = 3)): 99.45 ± 51.035 L/h
- V/F ([1]; 10 mg BID (n = 3)): 126.07 ± 40.383 L
- CL/F ([1]; 20 mg BID (n = 3)): 24.11 ± 11.940 L/h
- V/F ([1]; 20 mg BID (n = 3)): 49.56 ± 19.453 L
- CL/F ([1]; 40 mg BID (n = 3)): 24.58 ± 7.772 L/h
- V/F ([1]; 40 mg BID (n = 3)): 42.35 ± 25.602 L
- CL/F ([1]; 60 mg BID (n = 4)): 16.47 ± 4.677 L/h
- V/F ([1]; 60 mg BID (n = 4)): 45.88 ± 14.063 L
- CL/F ([1]; 80 mg BID (n = 4)): 48.30 ± 25.396 L/h
- V/F ([1]; 80 mg BID (n = 4)): 92.88 ± 47.995 L
- CL/F ([1]; 110 mg BID (n = 3)): 24.35 ± 17.791 L/h
- V/F ([1]; 110 mg BID (n = 3)): 43.99 ± 17.319 L
- CL/F ([1]; 150 mg BID (n = 4)): 12.57 ± 2.022 L/h
- V/F ([1]; 150 mg BID (n = 4)): 34.75 ± 12.576 L
- dose dependence of antitumor activity ([2]; dose range of 5–40 mg/kg, in vivo preclinical data): dose-dependent
- antitumor activity in xenograft models ([2]; tumors with abnormal regulation in the mTOR signaling pathway, ref [25], [26]): selective antitumor effect; also recorded: selective antitumor activity
